Experiment [1] addresses Sodium-dependent serotonin transporter (Homo sapiens, UniProt P31645). Nature of the experiment: Inhibition of radiolabeled serotonin reuptake at human SERT expressed in HEK293 cells. The experiment is classed as cell-based.
The target in experiment [2] is Sodium-dependent noradrenaline transporter (Homo sapiens, UniProt P23975). Put plainly: Inhibition of radiolabeled noradrenaline reuptake at human NET expressed in HEK293 cells. The experiment is classed as cell-based.
The target in experiment [3] is Sodium-dependent dopamine transporter (Homo sapiens, UniProt Q01959). Put plainly: Inhibition of radiolabeled dopamine reuptake at human DAT expressed in HEK293 cells. The format is cell-based.
The target in experiment [4] is Voltage-gated inwardly rectifying potassium channel KCNH2 (Homo sapiens, UniProt Q12809). Nature of the experiment: Displacement of [3H]dofetilide from human ERG expressed in HEK293 cells. On the technique in general: Loss of bound radioactivity is the signal in a displacement assay; it reports binding, not function.
The target of experiment [5] is T1, 5-hydroxytryptamine receptor 3A (Homo sapiens, UniProt P46098).
T1 sequence (P46098 whole entry): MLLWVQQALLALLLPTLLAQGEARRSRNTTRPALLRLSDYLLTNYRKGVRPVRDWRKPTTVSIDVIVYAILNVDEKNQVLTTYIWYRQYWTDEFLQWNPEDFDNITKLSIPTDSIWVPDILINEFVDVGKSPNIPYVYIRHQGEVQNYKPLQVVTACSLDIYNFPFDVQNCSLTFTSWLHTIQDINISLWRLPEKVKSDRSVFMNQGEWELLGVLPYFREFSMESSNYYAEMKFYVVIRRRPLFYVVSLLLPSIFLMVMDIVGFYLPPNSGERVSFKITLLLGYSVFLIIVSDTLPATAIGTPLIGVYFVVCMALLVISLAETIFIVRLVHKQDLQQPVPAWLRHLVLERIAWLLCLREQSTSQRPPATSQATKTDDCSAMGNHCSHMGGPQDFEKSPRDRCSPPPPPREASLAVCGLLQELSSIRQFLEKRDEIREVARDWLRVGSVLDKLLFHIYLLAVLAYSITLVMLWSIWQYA
Nature of the experiment: Displacement of [3H]granisetron from human 5HT3 receptor expressed in HEK293 cells. The format is cell-based.

Sodium-dependent serotonin transporter, sequence (P31645 whole entry): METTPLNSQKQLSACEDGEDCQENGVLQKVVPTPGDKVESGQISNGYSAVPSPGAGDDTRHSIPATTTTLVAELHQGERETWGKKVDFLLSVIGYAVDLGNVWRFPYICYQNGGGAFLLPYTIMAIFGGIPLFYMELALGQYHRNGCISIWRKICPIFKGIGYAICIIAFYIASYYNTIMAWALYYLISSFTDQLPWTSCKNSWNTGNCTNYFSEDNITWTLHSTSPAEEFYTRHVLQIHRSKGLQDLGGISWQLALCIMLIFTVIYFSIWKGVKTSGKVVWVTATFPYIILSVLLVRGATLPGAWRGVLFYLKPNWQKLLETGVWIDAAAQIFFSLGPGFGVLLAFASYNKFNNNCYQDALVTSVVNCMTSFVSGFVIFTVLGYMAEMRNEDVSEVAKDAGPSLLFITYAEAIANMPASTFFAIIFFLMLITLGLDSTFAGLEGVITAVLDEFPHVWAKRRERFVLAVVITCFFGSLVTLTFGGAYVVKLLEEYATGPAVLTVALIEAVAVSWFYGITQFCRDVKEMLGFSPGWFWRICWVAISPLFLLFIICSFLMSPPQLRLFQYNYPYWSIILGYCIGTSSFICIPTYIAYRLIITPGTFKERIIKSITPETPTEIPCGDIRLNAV
Sodium-dependent noradrenaline transporter, sequence (P23975 whole entry): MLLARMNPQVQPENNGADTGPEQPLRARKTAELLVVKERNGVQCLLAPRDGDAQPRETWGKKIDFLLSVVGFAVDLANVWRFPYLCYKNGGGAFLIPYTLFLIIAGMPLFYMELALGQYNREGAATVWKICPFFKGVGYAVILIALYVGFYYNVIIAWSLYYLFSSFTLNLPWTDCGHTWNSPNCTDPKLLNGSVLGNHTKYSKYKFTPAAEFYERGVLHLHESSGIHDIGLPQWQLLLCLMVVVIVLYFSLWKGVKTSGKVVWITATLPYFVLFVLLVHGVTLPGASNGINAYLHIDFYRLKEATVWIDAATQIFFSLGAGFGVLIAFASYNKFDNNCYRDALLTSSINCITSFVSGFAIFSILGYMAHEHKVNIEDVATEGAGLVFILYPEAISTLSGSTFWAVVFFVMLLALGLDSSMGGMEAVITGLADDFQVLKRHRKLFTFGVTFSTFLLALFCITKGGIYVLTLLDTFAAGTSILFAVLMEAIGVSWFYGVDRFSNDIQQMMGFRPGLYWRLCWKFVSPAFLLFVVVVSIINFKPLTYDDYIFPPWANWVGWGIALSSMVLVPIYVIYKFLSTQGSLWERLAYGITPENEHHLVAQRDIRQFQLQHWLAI
Voltage-gated inwardly rectifying potassium channel KCNH2, sequence (Q12809 whole entry): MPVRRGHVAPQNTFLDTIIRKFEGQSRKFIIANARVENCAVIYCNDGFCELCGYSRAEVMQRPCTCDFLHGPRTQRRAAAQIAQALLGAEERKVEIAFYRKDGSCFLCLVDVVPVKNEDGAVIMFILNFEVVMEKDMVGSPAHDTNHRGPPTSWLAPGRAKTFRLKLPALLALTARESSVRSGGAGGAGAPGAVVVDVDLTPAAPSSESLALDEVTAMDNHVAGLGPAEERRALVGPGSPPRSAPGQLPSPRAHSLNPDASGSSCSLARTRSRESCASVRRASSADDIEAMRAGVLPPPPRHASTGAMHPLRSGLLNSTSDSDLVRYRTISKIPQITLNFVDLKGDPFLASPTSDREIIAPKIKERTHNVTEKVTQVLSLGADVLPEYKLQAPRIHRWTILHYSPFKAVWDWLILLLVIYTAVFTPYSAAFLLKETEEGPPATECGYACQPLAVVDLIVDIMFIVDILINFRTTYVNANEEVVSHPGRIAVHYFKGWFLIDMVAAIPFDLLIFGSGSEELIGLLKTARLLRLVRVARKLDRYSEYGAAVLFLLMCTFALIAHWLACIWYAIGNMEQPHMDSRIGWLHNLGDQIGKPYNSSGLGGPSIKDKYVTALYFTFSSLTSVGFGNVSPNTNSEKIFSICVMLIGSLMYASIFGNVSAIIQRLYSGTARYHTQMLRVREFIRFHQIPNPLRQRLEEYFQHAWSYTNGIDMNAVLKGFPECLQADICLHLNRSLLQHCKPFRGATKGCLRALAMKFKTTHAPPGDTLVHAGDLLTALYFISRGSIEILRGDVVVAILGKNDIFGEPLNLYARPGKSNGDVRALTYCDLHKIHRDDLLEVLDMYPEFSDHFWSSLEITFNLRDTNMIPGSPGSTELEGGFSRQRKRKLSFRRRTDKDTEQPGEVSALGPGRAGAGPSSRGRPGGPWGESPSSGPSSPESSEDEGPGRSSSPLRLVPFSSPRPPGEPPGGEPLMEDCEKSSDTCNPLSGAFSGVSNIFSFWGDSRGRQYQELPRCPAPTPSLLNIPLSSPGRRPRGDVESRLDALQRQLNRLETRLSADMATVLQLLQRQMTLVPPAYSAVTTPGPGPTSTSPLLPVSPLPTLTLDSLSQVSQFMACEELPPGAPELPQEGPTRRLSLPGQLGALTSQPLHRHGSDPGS
Sodium-dependent dopamine transporter, sequence (Q01959 whole entry): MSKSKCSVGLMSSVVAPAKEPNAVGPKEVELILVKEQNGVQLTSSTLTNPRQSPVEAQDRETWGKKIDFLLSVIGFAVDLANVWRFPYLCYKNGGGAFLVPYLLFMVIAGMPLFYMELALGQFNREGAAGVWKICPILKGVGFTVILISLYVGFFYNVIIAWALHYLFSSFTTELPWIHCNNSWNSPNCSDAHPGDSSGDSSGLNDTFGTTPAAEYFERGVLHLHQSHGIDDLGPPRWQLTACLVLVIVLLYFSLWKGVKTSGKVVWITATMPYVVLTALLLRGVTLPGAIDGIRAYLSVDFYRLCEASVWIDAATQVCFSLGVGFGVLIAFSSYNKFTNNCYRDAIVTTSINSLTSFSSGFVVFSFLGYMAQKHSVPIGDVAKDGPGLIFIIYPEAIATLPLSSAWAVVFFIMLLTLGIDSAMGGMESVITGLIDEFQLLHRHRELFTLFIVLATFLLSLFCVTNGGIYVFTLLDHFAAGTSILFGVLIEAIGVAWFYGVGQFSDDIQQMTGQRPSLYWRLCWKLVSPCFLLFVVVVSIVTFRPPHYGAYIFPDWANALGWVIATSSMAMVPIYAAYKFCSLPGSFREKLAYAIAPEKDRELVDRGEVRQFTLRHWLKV

In general, IC50 refers to the midpoint of a concentration-inhibition curve. Low values mean greater potency, high ones weaker potency. Take `CC(C)CN(Cc1ccc2ccccc2c1)[C@@H]1CCNC1`: the IC50 in experiment [1] was 5 nM; in experiment [2], 80 nM; in experiment [3] it was 66 nM.

As for `c1ccc2cc(COC3CCNCC3)ccc2c1` [LITOXETINE], the IC50 in experiment [1] came out at 6 nM; in experiment [2], 6500 nM; in experiment [3], 1300 nM.

For `N#Cc1ccc2cc(OCC3CCNCC3)ccc2c1`, the figures for the half-maximal inhibitory concentration (IC50) in experiment [1], in experiment [2] and in experiment [3] were 15 nM, 1900 nM and 6000 nM, respectively.

For orientation: Ki means the equilibrium dissociation constant of an inhibitor or competing ligand from its target. Low values mean a stronger hold on the target, high ones a looser hold on the target. With `N#Cc1ccc2ccc(OCC3CCNCC3)cc2c1`, the figures for the half-inhibitory concentration (IC50) in experiment [1], in experiment [2] and in experiment [3] were 3 nM, 4400 nM and 8800 nM, respectively. Besides, the inhibition constant (Ki) in experiment [4] is 3500 nM; in experiment [5], 404 nM.

For `CCCCN(C1CCNCC1)S(=O)(=O)c1ccc2ccccc2c1`, the half-maximal inhibitory concentration (IC50) in experiment [1] amounted to 14 nM; in experiment [2], 40000 nM; in experiment [3], 19000 nM. In experiment [4], this compound showed a Ki of 716 nM.

For `c1ccc2cc(CO[C@H]3CCNC3)ccc2c1`, the values for the half-maximal inhibitory concentration (IC50) in experiment [1], in experiment [2] and in experiment [3] were 23 nM, 2900 nM and 15000 nM, respectively. The inhibition constant Ki in experiment [4] stood at 15700 nM.

For `CCN([C@@H]1CCNC1)S(=O)(=O)c1ccc2ccccc2c1`, the figures for the IC50 in experiment [1], in experiment [2] and in experiment [3] were 30 nM, 2600 nM and above 30000 nM, respectively.

In turn, `CN([C@H]1CCNC1)S(=O)(=O)c1ccc2ccccc2c1` showed an IC50 in experiment [1] above 400 nM.

Regarding `c1ccc2cc(CO[C@@H]3CCNC3)ccc2c1`, the IC50 in experiment [1] was 20 nM; in experiment [2] it was 1200 nM; in experiment [3] it was 3800 nM. In experiment [4], this compound showed a Ki of 16400 nM.

Turning to `Fc1ccc2cc(CCN3CCNCC3)ccc2c1`, the IC50 in experiment [1] is 11 nM; in experiment [2] it was 10500 nM; in experiment [3], 24000 nM. Besides, the Ki in experiment [4] was 8500 nM.

Consider `c1ccc2cc(CN(C3CCC3)C3CCNCC3)ccc2c1`, for which the concentration for half-maximal inhibition (IC50) in experiment [1] was determined as 2 nM; in experiment [2], 1500 nM; in experiment [3], 210 nM.

As for `c1ccc2cc(OCC3CCNCC3)ccc2c1`, the IC50 in experiment [1] is 8 nM; in experiment [2], 1800 nM; in experiment [3], above 7000 nM. For the same compound, the affinity in experiment [5] corresponds to a Ki of 311 nM.

Take `N#Cc1ccc2cc(OC[C@H]3CCNC3)ccc2c1`: the IC50 in experiment [1] was 37 nM; in experiment [2], 200 nM.

With `Fc1ccc2cc(CO[C@@H]3CCNC3)ccc2c1`, the IC50 in experiment [1] turned out to be 4 nM; in experiment [2], 10600 nM; in experiment [3] it was 2100 nM. Further, affinity in experiment [4] was put at a Ki of 10300 nM.

For the compound `CCCCN([C@H]1CCNC1)S(=O)(=O)c1ccc2ccccc2c1`, the IC50 in experiment [1] is 16 nM; in experiment [2] it was 5600 nM; in experiment [3], above 30000 nM. In experiment [4], the Ki was determined as 412 nM.

For `N#Cc1ccc2cc(OC[C@@H]3CCNC3)ccc2c1`, the IC50 came out at 42 nM in experiment [1] and 772 nM in experiment [2].

Consider `CCCCN(Cc1ccc2ccccc2c1)[C@H]1CCNC1`, for which the IC50 was found to be 0.3 nM in experiment [1], 80 nM in experiment [2] and 88 nM in experiment [3].

As for `COCC(Oc1ccc2ccccc2c1)C1CCNCC1` (racemic), the IC50 was determined as 5 nM in experiment [1] and 827 nM in experiment [2]. In experiment [5], this compound showed an inhibitory constant (Ki) above 10000 nM.

Turning to `Cc1c(CCN2CCNCC2)ccc2cc(F)ccc12`, the concentration for half-maximal inhibition (IC50) in experiment [1] was 4 nM; in experiment [2] it was 8400 nM; in experiment [3], above 31000 nM. The inhibition constant (Ki) in experiment [4] was determined as 10100 nM.

On to `N#Cc1ccc2cc(CO[C@H]3CCNC3)ccc2c1`, for which the half-inhibitory concentration (IC50) was determined as 3 nM in experiment [1], 6800 nM in experiment [2] and 861 nM in experiment [3]. In experiment [4], this compound gave an inhibitory constant (Ki) of 4500 nM.

Regarding `CN(Cc1ccc2ccccc2c1)[C@H]1CCNC1`, the IC50 was 13 nM in experiment [1], 5400 nM in experiment [2] and 7700 nM in experiment [3]. Also, the inhibitory constant (Ki) in experiment [4] was above 5000 nM.

`c1ccc2cc(OCC3CCNC3)ccc2c1` (racemic): the values for the IC50 in experiment [1], in experiment [2] and in experiment [3] were 25 nM, 1400 nM and 1000 nM, respectively. In addition, the Ki in experiment [4] is above 5500 nM.

For the compound `CN(Cc1ccc2ccccc2c1)[C@@H]1CCNC1`, the IC50 in experiment [1] amounted to 119 nM; in experiment [2], 3000 nM; in experiment [3] it was 3000 nM.

`CCN(C1CCNCC1)S(=O)(=O)c1ccc2ccccc2c1`: the results for the IC50 in experiment [1], in experiment [2] and in experiment [3] were above 400 nM, above 10000 nM and above 10000 nM, respectively.

With `CN([C@@H]1CCNC1)S(=O)(=O)c1ccc2ccccc2c1`, the IC50 in experiment [1] amounted to 138 nM; in experiment [2], 3000 nM.

On to `c1ccc2cc(CCN3CCNCC3)ccc2c1`, for which 88 nM corresponded to half-maximal inhibition in experiment [1] (IC50).

The values above are taken from ChEMBL document CHEMBL1153958, “Design and optimization of selective serotonin re-uptake inhibitors with high synthetic accessibility. Part 1” (Bioorg Med Chem Lett, 2009).
